Reference: US11759460B2, “Method of local antibiotic treatment of infective endocarditis” (priority 2020, dated 2023)
In brackets after ≈: the same amount, converted by molar mass. Entries after “also recorded” stand apart in the source; their conditions may differ. Like-named read-outs stand apart in the source and are kept apart here.

Tests used:
[1] = cited from earlier work
[2] = system: planctonic Enterococcus faecalis; assay: Minimal inhibitory concentration for planktonic Enterococcus faecalis; type: cell-based
planktonic S. aureus = assay: Minimal inhibitory concentration for planktonic S. aureus; type: cell-based; conditions: Staphylococcus aureus
S. aureus biofilms = assay: Single antibiotic treatment of S. aureus biofilms (SGT method); type: cell-based, Staphylococcus aureus; conditions: for biofilm bactericidal concentration (BBC): S. aureus biofilms grown 48 h, 24 h treatment, 3 log10 CFU (99.9%) reduction vs control
Text: (§1) FIGS. 1A and 1B illustrates effects of different antibiotics tested in a dose-dependent manner against bacterial biofilms of different isolates of S. aureus and E. faecalis using only one antibiotic per treatment to screen the effect of the single antibiotics against bacterial biofilms. The graphs show the decadic logarithm of the colony forming units (log10 CFU) of either S. aureus or E. faecalis on the ordinate in relation to the concentration of various antibiotics on the abscissa. Data points belonging to one antibiotic were connected by lines for clarity. In each graph, the dashed line reflects the biofilm bactericidal concentration (BBC), defined as the target of 3 log10 CFU below the control, i.e. the log10 CFU of untreated biofilms (shown at the antibiotic concentration of 0 mg/L), which needs to be undercut to achieve a meaningful suppression of the bacteria in a biofilm of ≥99.9%. The line graphs intersecting this line indicate the antibiotics' concentrations that need to be applied for effective treatment in S. aureus and E. faecalis biofilms. […] For instance, the BBC of rifampicin against S. aureus is ˜4 mg/L; the BBC of dalbavancin is ˜32 mg/L against E. faecalis in biofilms.
FIGS. 1A and 1B illustrate the effect of different antibiotics tested in a dose-depended manner against bacterial biofilms of different bacterial isolates of S. aureus and E. faecalis using only one antibiotic per treatment to screen the effect of the single antibiotics against bacterial biofilms. To obtain the results the inventors used four strains of S. aureus, i.e. three patient isolates and one reference strain, and three strains of E. faecalis, i.e. two isolates from patients as well as one reference strain. In order to test the different antibiotics individually against the bacterial biofilms, the inventors incubated bacterial suspensions of E. faecalis and S. aureus strains in a 96 well microtiter plate for biofilm formation for 48 hours in a humidified modified atmosphere at 37° C. and 5% CO2 without shaking. For the antibiotic treatment of the biofilms the supernatant of each well was removed and the antibiotic treatment with the individual antibiotics to be tested was added to the biofilms and incubated for 24 hours at the same conditions. The number of bacteria in each well after the 24-hour treatment was determined via so called start-growth-time (SGT) method, where the bacterial regrowth of the dispersed bacteria from the biofilms was measured in an incubation chamber of a plate reader over time. Lower bacteria densities lead to a longer regrowth time to reach a certain threshold compared to controls. Each treatment for each strain was performed in three technical replicates. […]

E. faecalis biofilms = assay: Single antibiotic treatment of E. faecalis biofilms (SGT method); type: cell-based, Enterococcus faecalis; conditions: for biofilm bactericidal concentration (BBC): E. faecalis biofilms grown 48 h, 24 h treatment, 3 log10 CFU (99.9%) reduction vs control
Text: as §1
FIGS. 1A and 1B illustrate the effect of different antibiotics tested in a dose-depended manner against bacterial biofilms of different bacterial isolates of S. aureus and E. faecalis using only one antibiotic per treatment to screen the effect of the single antibiotics against bacterial biofilms. To obtain the results the inventors used four strains of S. aureus, i.e. three patient isolates and one reference strain, and three strains of E. faecalis, i.e. two isolates from patients as well as one reference strain. […] The number of bacteria in each well after the 24-hour treatment was determined via so called start-growth-time (SGT) method, where the bacterial regrowth of the dispersed bacteria from the biofilms was measured in an incubation chamber of a plate reader over time. […]

[3] = systemic therapy, 'believed to be'

| SMILES | MIC (planktonic S. aureus) [µg/mL] | biofilm bactericidal concentration (BBC) (E. faecalis biofilms) | approximate concentration in tissue with systemic therapy [1, 3] [mg/L] | biofilm bactericidal concentration (BBC) (S. aureus biofilms) | other results |
| --- | --- | --- | --- | --- | --- |
| CCCCCCCCCC(=O)N[C@@H](Cc1c[nH]c2ccccc12)C(=O)N[C@H](CC(N)=O)C(=O)N[C@@H](CC(=O)O)C(=O)N[C@@H]1C(=O)NCC(=O)N[C@@H](CCCN)C(=O)N[C@@H](CC(=O)O)C(=O)N[C@H](C)C(=O)N[C@@H](CC(=O)O)C(=O)NCC(=O)N[C@H](CO)C(=O)N[C@@H]([C@H](C)CC(=O)O)C(=O)N[C@@H](CC(=O)c2ccccc2N)C(=O)O[C@@H]1C [daptomycin] | ~0.25 (≈ 0.154 µM) | about 32 mg/L | – | – | approximate concentration in tissue with systemic therapy ([1]; in vivo): ~4 mg/L; MIC [2]: ~0.25 µg/mL (≈ 0.154 µM); suppression of bacteria in biofilms (in words) (S. aureus biofilms; S. aureus biofilms, single antibiotic): can suppress the bacteria sufficiently; also recorded: highest potency; suppression of bacteria in biofilms (in words) (E. faecalis biofilms; E. faecalis biofilms, single antibiotic): can suppress the bacteria sufficiently; also recorded: highest potency |
| CO[C@H]1/C=C/O[C@@]2(C)Oc3c(C)c(O)c4c(O)c(c(/C=N/N5CCN(C)CC5)c(O)c4c3C2=O)NC(=O)/C(C)=C\C=C\[C@H](C)[C@H](O)[C@@H](C)[C@@H](O)[C@@H](C)[C@H](OC(C)=O)[C@@H]1C [rifampicin] | ~0.004 (≈ 0.00486 µM) | – | ~1 | ~4 mg/L | – |
| CN[C@H](CC(C)C)C(=O)N[C@H]1C(=O)N[C@@H](CC(N)=O)C(=O)N[C@H]2C(=O)N[C@H]3C(=O)N[C@H](C(=O)N[C@H](C(=O)O)c4cc(O)cc(O)c4-c4cc3ccc4O)[C@H](O)c3ccc(c(Cl)c3)Oc3cc2cc(c3O[C@@H]2O[C@H](CO)[C@@H](O)[C@H](O)[C@H]2O[C@H]2C[C@](C)(N)[C@H](O)[C@H](C)O2)Oc2ccc(cc2Cl)[C@H]1O [vancomycin] | – | – | ~1 | – | – |
| NCC[C@H](O)C(=O)N[C@@H]1C[C@H](N)[C@@H](O[C@H]2O[C@H](CN)[C@@H](O)[C@H](O)[C@H]2O)[C@H](O)[C@H]1O[C@H]1O[C@H](CO)[C@@H](O)[C@H](N)[C@H]1O [Amikacin, amikacin] | – | – | – | > 512 mg/L | – |
| C[C@@H]1O[C@@H]1P(=O)(O)O [phosphomycin] | – | > 1024 mg/L | – | – | – |
| CN[C@H]1C(=O)N[C@@H]2Cc3ccc(cc3)Oc3cc4cc(c3O[C@@H]3O[C@H](C(=O)O)[C@@H](O)[C@H](O)[C@H]3NC(=O)CCCCCCCCC(C)C)Oc3ccc(cc3Cl)[C@@H](O)[C@@H]3NC(=O)[C@H](NC(=O)[C@@H]4NC(=O)[C@@H](NC2=O)c2cc(cc(O)c2Cl)Oc2cc1ccc2O)c1ccc(O)c(c1)-c1c(O[C@H]2O[C@H](CO)[C@@H](O)[C@H](O)[C@@H]2O)cc(O)cc1[C@@H](C(=O)NCCCN(C)C)NC3=O [dalbavancin] | – | – | – | about 4 mg/L | – |
